Active and inactive are the calls of the source.
How the values were obtained:
[1] = luciferase reporter signal suppression in cells – H4 neuroglioma cells, luminescence, dose response (AID 1990); assay type: functional, cell-based
[2] = Luminescence Cell-Based Dose Response HTS to Identify Inhibitors of 5'UTR Stem-Loop Driven Prion Protein mRNA Translation in H4 Neuroglioblastoma Cells. [Related pubchem assays: 1827 (Project Summary), 1813 (Primary HTS)]; assay type: functional
[3] = alpha-synuclein stem-loop luciferase translation blockers – H4 neuroglioma cells, luminescence, confirmation (AID 1988); assay type: functional, cell-based
[4] = tested on: Streptococcus sp. 'group A'; assay: Streptococcus pyogenes SK(-)GAS viability under kanamycin – luminescence, BacTiterGlo, confirmation, counter-screen for streptokinase expression inhibitor project, dose response (AID 1900); assay type: functional, organism-based
[5] = Trypanosoma cruzi growth suppression in host cells – NIH3T3 host cells, beta-gal luminescence, confirmation (AID 2044); assay type: functional, cell-based;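 note: intracellular parasites grown in NIH/3T3 mouse fibroblasts as host cells; luminescent beta-galactosidase reporter signal from transgenic T. cruzi replicating inside host cells; inhibitors lower the luminescence signal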
[6] = NIH3T3 cell viability loss – ATP luminescence, mouse fibroblasts, counter-screen, dose response (AID 2010); assay type: functional, cell-based;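 note: cells exposed to compound for about 90 hours before reading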
[7] = tested on: Streptococcus; assay: GAS UMAA2166 growth inhibition – luminescence, BacTiterGlo, counter-screen for streptokinase expression inhibitor project, dose response (AID 1915); assay type: functional, organism-based;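 note: potency for reduction of bacterial viability or growth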
[8] = biological target: Cytochrome P450 2C19 (Homo sapiens, UniProt P33261); assay: Cytochrome panel assay with activity outcomes. Panel member name: p450-cyp2c19 Compounds with AC50 equal or less than 10 uM are considered active; assay type: functional
Chain of Cytochrome P450 2C19 (P33261 whole entry): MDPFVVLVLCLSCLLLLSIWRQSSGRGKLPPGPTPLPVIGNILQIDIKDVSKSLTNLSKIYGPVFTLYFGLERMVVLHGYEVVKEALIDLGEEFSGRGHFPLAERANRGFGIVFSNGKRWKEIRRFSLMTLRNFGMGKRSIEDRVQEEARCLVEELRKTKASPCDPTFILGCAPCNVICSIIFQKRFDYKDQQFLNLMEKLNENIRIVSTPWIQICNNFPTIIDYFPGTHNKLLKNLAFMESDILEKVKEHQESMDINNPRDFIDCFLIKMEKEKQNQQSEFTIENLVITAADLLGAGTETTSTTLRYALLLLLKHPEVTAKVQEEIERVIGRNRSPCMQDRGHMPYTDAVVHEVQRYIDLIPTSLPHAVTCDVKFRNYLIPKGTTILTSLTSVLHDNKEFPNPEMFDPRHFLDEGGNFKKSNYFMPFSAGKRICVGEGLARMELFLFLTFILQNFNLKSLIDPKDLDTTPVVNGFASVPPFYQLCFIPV

[9] = biological target: T1, Heat shock factor protein 1 (Mus musculus, UniProt P38532); assay: decrease of HSF1-responsive luciferase luminescence – cell-based, NIH3T3, dose retest, confirmation (AID 2382); assay type: functional;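 note: NIH3T3 fibroblasts with HSF1-driven luciferase reporter stressed by proteasome inhibitor MG132; luminescence from HSF1-driven luciferase expression after 8 hours of MG132 stress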
T1 sequence (P38532 whole entry): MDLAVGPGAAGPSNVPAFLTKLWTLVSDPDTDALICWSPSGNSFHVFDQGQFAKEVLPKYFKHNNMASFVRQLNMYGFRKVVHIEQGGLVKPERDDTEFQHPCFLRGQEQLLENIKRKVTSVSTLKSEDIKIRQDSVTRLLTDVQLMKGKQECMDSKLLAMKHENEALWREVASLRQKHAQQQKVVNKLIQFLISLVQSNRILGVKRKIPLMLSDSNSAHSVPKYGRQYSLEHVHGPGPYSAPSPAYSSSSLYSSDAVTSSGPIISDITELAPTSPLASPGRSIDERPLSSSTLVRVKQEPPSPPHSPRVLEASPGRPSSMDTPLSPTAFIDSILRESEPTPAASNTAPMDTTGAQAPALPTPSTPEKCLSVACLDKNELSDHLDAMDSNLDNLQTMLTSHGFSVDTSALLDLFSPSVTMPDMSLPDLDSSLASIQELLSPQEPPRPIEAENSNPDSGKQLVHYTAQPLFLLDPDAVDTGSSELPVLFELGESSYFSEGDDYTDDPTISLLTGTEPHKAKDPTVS

[10] = biological target: T2, Cytochrome P450 1A2 (Homo sapiens, UniProt P05177);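 note: PubChem cytochrome P450 panel assay, CYP1A2 panel member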
T2 sequence (P05177 whole entry): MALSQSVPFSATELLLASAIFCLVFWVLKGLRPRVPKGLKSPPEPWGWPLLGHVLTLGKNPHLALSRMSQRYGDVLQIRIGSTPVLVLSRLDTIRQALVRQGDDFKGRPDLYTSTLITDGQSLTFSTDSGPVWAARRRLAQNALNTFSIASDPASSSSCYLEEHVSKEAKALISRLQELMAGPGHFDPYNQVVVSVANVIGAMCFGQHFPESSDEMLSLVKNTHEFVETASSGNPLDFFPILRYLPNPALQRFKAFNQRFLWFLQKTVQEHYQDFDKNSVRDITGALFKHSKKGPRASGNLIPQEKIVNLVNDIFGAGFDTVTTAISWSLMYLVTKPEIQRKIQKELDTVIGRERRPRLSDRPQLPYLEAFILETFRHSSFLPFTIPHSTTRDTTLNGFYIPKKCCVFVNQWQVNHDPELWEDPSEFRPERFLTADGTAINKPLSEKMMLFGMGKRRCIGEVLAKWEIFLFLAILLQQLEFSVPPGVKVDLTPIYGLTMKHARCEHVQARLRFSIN

[11] = tested on: INS1; assay: INS-1E survival protection against cytokine death – cell-based, luminescence, retest, dose response (AID 449756); assay type: functional; details: Rattus norvegicus;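 note: cell death triggered by IL-1 beta plus TNF-alpha plus IFN-gamma mixture; protective hits raise ATP signal compared with cytokine alone wells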

For CCOC(=O)c1c(-c2cccs2)csc1NC(=O)CN1CCOCC1, the EC50 [1] was 20.9 µM (active), the EC50 [2] was 80.6 µM (active) and the EC50 [3] was > 120 µM (not active).
With Oc1[nH]c2ccc(Br)cc2c1N=NC(S)=Nc1ccc(F)cc1 the EC50 [1] was 15.5 µM (inconclusive), the EC50 [4] was 0.074 µM (active) and the EC50 [2] was > 120 µM (not active). The EC50 [3] was 9.77 µM (active), the EC50 [5] was 1.63 µM (active) and the EC50 [6] was 7.03 µM (active). The EC50 [7] was 1.39 µM (active).
With Cc1cc(=O)[nH]c2ccccc12 the AC50 ([8]; read-out: AC50) was 20 µM (inconclusive).
In the case of CCNC(=O)CNC(=O)c1nn(Cc2ccccc2)c(=O)c2ccccc12, the EC50 [9] is reported as > 195 µM (not active).
For COc1ccc(CNC(=O)c2cnc3scc(C)n3c2=O)cc1, the EC50 [9] was > 195 µM (not active).
In the case of CC(C)CCNC(=O)C1CCCN1C(=O)NC1CCCCC1 (stereo not given), the EC50 [9] is reported as > 195 µM (not active).
With Cc1ccc(Nc2nc(-c3cccnc3)cs2)cc1Cl the EC50 [5] was 2.13 µM (active) and the EC50 [6] was > 60 µM (not active).
With CC(C)(O)C#Cc1ccc(CN2CCCC(CO)(Cc3cccc(Cl)c3)C2)cc1 (stereo not given) the EC50 [5] was 0.455 µM (active) and the EC50 [6] was > 60 µM (not active).
For COC(=O)Nc1nc2cc(C(=O)c3ccc(F)cc3)ccc2[nH]1 [FLUBENDAZOLE], the EC50 [1] was 0.323 µM (active), the EC50 [2] was 0.225 µM (active) and the EC50 [3] was < 0.1 µM (active).
With Cc1cc2c(cc1C)NC(c1nc3ccccc3[nH]1)C1=C(O)CC(C)(C)CC1=N2 (stereo not given) the AC50 ([8]; read-out: AC50) was 1.78 µM (inconclusive) and the AC50 [10] was 25.1 µM (inconclusive).
For C[C@@H](C(=O)NCCc1c[nH]c2ccccc12)[C@@H]1C[C@@]1(C)[C@@H](NC(=O)OCc1ccccc1)c1ccccc1, the AC50 [10] was 12.6 µM (inconclusive).
In the case of COc1cccc(-c2nc(-c3ccc(NC(=O)c4cccnc4)cc3)no2)c1, the AC50 [11] is reported as 1.33 µM (active).
In the case of CCOc1ccc(C(=O)C[n+]2cccc3cc(C)ccc32)cc1, the EC50 [5] is reported as 4.12 µM (active) and the EC50 [6] is reported as > 30 µM (not active).
In the case of O=C(Nc1ccccc1)c1ccc(Nc2c([N+](=O)[O-])cc([N+](=O)[O-])c3ccccc23)cc1, the EC50 [5] is reported as 0.622 µM (active) and the EC50 [6] is reported as > 60 µM (not active).
For Clc1ccccc1CN(Cc1ccccc1)c1[nH]cnc2ncnc1-2, the EC50 [4] was 5.85 µM (active) and the EC50 [7] was > 150 µM (not active).
In the case of Cc1cc(Cl)ccc1OCCCC(=O)N1CCOCC1, the EC50 [9] is reported as > 195 µM (not active).
For O=C1N=C2SCCN2/C1=C\c1c(Cl)cccc1Cl, the AC50 ([8]; read-out: AC50) was 28.2 µM (inconclusive).
With CCc1ccc(C2=NN(CCC(=O)NC(C)CCc3ccccc3)C(=O)CC2)cc1 (stereo not given) the EC50 [1] was > 120 µM (not active), the EC50 [2] was 23.8 µM (active) and the EC50 [3] was 119 µM (active).
For COc1cccc(/C=C/C(=O)OCC(=O)Nc2nnc(-c3ccccc3)o2)c1, the EC50 [4] was 6.11 µM (active) and the EC50 [7] was 11.1 µM (active).
In the case of CNc1cc(NS(=O)(=O)c2ccc(N)cc2)nc(NC)n1, the AC50 [8] is reported as “inconclusive”.
In the case of COc1cccc(CNc2nc(SC)ncc2CO)c1, the EC50 [1] is reported as 13.5 µM (active), the EC50 [2] is reported as 27.1 µM (active) and the EC50 [3] is reported as > 120 µM (not active).
For COc1ccc(NC(=O)N2CC3(CCN(C(=O)c4c(C)noc4C)CC3)C2)cc1, the AC50 ([8]; read-out: AC50) was 39.8 µM (inconclusive).
In the case of COc1ccc(CN(C)C(=O)c2cc(S(=O)(=O)N3CCOCC3)ccc2N2CCCC2)cc1, the EC50 [9] is reported as > 195 µM (not active).
With Cn1nnnc1SCc1ccccc1[N+](=O)[O-] the AC50 [10] was 15.8 µM (inconclusive).
For O=C(Nc1cccnc1)c1cccnc1, the AC50 [11] was 7.3 µM (active).
In the case of O=C(Nn1c(-c2ccncc2)nc2ccccc2c1=O)c1ccc(Br)cc1, the EC50 [5] is reported as 0.75 µM (active) and the EC50 [6] is reported as > 60 µM (not active).
With COC(=O)c1ccc(NC(=S)N(Cc2cccnc2)Cc2ccco2)cc1 the EC50 [5] was 0.534 µM (active) and the EC50 [6] was > 30 µM (not active).

From ChEMBL document CHEMBL1201862, “PubChem BioAssay data set” (2004)
